For test [1], the target named is T1, IKZF2 (Helios) (Homo sapiens, UniProt Q96SW2+Q9UKS7).
T1 construct: Leu-Asp junction (codons ctcgac before the linker); mScarlet (behind P2A) (C, cleaved yes); expressed in transfected cells
In words: IKZF2 reporter degradation assay (HEK 293T IKZF2-mNeonGreen reporter cell line). It is filed as cell-based. To be noted: @ 1 μM, HEK 293T IKZF2-mNeonGreen reporter, 24 hours incubation; for inhibition at 1 µM: HEK-293T, 24 h. An outline of the steps: (§1)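 DC50 values come from four-parameter logistic regression of percent mNeonGreen-positive cells, imaged with mScarlet-based segmentation after 24 h compound exposure at 37° C. Quadruplicate wells had at most 0.5% DMSO. Reporters are C-terminal IKZF-mNeonGreen fusions with P2A-mScarlet, stably expressed in clonal HEK 293T lines.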

Test [2] has as its target T2, IKZF2 (Helios) (Homo sapiens, UniProt Q9UKS7).
T2 construct: Leu-Asp junction (codons ctcgac before the linker); mScarlet (behind P2A) (C, cleaved yes); expressed in transfected cells
Described as above. Conditions: HEK 293T IKZF2-mNeonGreen reporter, 24 hours incubation. Format: cell-based. An outline of the steps:
as §1

Test [3] deals with T3, IKZF3 (Aiolos) (Homo sapiens, UniProt Q9UKT9).
T3 construct: Leu-Asp junction (codons ctcgac before the linker); mScarlet (behind P2A) (C, cleaved yes); expressed in transfected cells
Description: IKZF3 reporter degradation assay (HEK 293T IKZF3-mNeonGreen reporter cell line). It is filed as cell-based. Conditions: HEK 293T IKZF3-mNeonGreen reporter, 24 hours incubation. In a few lines: as §1

The target in test [4] is T4, human E3 ligase component cereblon (CRBN) (Homo sapiens, UniProt Q96SW2).
T4 construct: host or cells: HEK293T
In words: Cereblon (CRBN) target engagement, NanoBRET TE Intracellular E3 Ligase Assay in transfected HEK-293T cells. Conditions: read-out: CRBN Binding EC50. An outline of the steps:
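Tracer displacement was read as the 610/450 nm BRET signal after 2 h at 37° C with an 11-point dilution series, typically 10 μM to 100 pM. Live HEK-293T cells expressed NanoLuc fused N-terminal to human CRBN together with DDB1. IC50 was fitted with a four-parameter logistic model.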

T4 sequence (Q96SW2 whole entry): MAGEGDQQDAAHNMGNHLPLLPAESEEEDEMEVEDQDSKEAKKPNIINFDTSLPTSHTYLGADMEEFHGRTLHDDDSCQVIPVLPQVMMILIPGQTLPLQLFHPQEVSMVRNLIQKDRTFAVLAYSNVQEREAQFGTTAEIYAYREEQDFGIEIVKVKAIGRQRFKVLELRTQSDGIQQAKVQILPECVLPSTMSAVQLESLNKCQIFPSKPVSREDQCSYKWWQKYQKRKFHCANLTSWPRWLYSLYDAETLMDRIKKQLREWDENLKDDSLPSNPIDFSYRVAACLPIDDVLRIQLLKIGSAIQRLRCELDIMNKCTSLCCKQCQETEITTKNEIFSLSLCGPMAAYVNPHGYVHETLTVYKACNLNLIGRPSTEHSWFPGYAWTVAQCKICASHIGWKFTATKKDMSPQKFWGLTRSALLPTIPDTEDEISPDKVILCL
T4 sequence (Q16531 whole entry partner): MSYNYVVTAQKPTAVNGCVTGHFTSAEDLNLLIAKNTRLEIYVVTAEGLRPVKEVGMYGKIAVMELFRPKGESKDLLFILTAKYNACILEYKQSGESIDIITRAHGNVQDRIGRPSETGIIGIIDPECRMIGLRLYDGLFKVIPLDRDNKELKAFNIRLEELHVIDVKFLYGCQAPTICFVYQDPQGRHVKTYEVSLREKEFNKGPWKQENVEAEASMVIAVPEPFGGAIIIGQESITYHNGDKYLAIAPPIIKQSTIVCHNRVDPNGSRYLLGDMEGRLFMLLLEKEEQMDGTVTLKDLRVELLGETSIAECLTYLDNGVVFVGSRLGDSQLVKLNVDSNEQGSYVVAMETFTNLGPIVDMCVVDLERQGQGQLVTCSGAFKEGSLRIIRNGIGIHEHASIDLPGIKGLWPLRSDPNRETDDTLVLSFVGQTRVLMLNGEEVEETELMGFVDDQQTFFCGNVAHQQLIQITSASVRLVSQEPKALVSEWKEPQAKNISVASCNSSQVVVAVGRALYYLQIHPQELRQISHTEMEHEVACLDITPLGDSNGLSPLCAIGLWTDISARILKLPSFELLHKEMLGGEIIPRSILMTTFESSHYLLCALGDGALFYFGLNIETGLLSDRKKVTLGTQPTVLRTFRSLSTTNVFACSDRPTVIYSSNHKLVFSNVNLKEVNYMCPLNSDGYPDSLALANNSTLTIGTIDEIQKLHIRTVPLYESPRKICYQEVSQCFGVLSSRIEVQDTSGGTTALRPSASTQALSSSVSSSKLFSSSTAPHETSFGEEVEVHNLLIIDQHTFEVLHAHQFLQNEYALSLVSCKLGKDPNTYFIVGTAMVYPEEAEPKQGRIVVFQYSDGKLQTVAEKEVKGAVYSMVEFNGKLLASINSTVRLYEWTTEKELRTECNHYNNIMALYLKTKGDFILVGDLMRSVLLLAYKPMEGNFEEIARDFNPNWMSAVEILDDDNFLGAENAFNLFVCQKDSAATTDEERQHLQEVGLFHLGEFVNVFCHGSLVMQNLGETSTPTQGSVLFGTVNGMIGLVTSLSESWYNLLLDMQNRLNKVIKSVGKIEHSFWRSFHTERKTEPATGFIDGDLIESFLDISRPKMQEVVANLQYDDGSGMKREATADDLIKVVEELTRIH
T3 sequence (Q96SW2 whole entry partner): as the sequence (Q96SW2 whole entry) above
T3 sequence (Q16531 whole entry partner): as the sequence (Q16531 whole entry partner) above
T3 sequence (Q9UKT9 whole entry): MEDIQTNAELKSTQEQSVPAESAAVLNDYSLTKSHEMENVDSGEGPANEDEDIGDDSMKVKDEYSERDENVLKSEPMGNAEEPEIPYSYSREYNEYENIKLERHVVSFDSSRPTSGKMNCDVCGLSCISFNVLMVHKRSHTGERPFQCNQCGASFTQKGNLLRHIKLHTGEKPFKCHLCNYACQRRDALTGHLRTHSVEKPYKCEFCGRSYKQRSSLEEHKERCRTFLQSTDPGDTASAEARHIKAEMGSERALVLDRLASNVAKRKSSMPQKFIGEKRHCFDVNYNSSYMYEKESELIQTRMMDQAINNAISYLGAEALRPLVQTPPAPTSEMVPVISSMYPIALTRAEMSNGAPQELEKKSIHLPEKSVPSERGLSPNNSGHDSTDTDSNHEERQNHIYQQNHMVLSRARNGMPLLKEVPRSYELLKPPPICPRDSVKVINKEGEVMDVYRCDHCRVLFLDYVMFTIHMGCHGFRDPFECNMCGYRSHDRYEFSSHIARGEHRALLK
T2 sequence (Q9UKS7 whole entry): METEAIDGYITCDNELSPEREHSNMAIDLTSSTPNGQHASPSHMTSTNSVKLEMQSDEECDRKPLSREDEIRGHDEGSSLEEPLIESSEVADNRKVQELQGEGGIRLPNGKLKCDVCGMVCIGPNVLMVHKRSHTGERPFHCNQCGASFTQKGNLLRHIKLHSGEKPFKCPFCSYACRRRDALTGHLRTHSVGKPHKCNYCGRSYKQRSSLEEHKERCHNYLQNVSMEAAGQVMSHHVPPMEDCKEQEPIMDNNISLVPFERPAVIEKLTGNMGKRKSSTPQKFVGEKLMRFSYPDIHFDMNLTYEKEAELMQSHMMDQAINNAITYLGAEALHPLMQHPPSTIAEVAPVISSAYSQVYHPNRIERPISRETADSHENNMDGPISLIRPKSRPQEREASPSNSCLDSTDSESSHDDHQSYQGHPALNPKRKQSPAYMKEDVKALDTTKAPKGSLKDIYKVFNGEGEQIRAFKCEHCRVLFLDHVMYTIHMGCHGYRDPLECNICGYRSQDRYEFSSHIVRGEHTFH
T2 sequence (Q96SW2 whole entry, further chain): as the sequence (Q96SW2 whole entry) above
T2 sequence (Q16531 whole entry partner): as the sequence (Q16531 whole entry partner) above
T1 sequence (Q9UKS7 whole entry): as the sequence (Q9UKS7 whole entry) above
T1 sequence (Q96SW2 whole entry): as the sequence (Q96SW2 whole entry) above
T1 sequence (Q16531 whole entry partner): as the sequence (Q16531 whole entry partner) above

Consider `O=C1CCC(N2Cc3cc(OC4CCCC4N4CC(c5ccc(C(F)(F)F)cn5)C4)ccc3C2=O)C(=O)N1` (centres unmarked) [Compound 147-B, 3-(1-oxo-5-((2-(3-(5-(trifluoromethyl)pyridin-2-yl)azetidin-1-yl)cyclopentyl)oxy)isoindolin-2-yl)piperidine-2,6-dione], for which the inhibition at 1 µM in test [1] amounted to 28.6%. Further, the DC50 is 130 nM in test [2] and > 30000 nM in test [3]. Further, in test [4], the EC50 was 22 nM.
The like results for `O=C1CCC(N2Cc3cc(O[C@@H]4CCCC[C@H]4N4CC(c5ccc(C(F)(F)F)cn5)C4)ccc3C2=O)C(=O)N1` (single isomer, unassigned) [Compound 128-B] were, in that order, 24.2%, 18 nM, > 30000 nM and 11 nM.
`Cc1cnccc1C1CN([C@H]2CCCC[C@@H]2Oc2ccc3c(c2)CN(C2CCC(=O)NC2=O)C3=O)C1` (single isomer, unassigned) [Compound 112-B] had an inhibition at 1 µM in test [1] of 67.1%. Besides, the DC50 in test [2] is 12 nM; in test [3], > 30000 nM. Besides, in test [4], the EC50 is 20 nM.
In the case of `O=C1CCC(N2Cc3cc(O[C@H]4CCCC[C@@H]4N4CC(c5ncncc5Cl)C4)ccc3C2=O)C(=O)N1` (single isomer, unassigned) [Compound 93-B], the “IKZF2 % Degradation @ 1 μM” value in test [1] worked out at 78%. For the same compound, the results for the DC50 in test [2] and in test [3] were 21 nM and > 30000 nM, respectively. The EC50 in test [4] worked out at 64 nM.
Take `O=C1CCC(N2Cc3cc(O[C@H]4CCCC[C@@H]4N4CC(c5cncc(Cl)c5)C4)ccc3C2=O)C(=O)N1` (single isomer, unassigned) [Compound 117-B]: the “IKZF2 % Degradation @ 1 μM” value in test [1] was determined as 68.4%. Also, the figures for the DC50 in test [2] and in test [3] were 25 nM and > 30000 nM, respectively. Moreover, the EC50 in test [4] stood at 21 nM.
On to `O=C1CCC(N2Cc3cc(O[C@H]4CCCC[C@@H]4N4CC(c5ncc(Cl)cn5)C4)ccc3C2=O)C(=O)N1` (single isomer, unassigned) [Compound 111-B], for which, in test [1], the inhibition at 1 µM was found to be 76%. Further, the DC50 in test [2] was 4 nM; in test [3], > 30000 nM. Moreover, the EC50 in test [4] turned out to be 7 nM.
Consider `O=C1CCC(N2Cc3cc(O[C@@H]4CCCC[C@H]4N4CC(c5ccc(C(F)(F)F)cn5)C4)ccc3C2=O)C(=O)N1` (single isomer, unassigned) [Compound 129-B], for which the “IKZF2 % Degradation @ 1 μM” value in test [1] is on record as 42.4%. The DC50 in test [2] is 20 nM; in test [3], > 30000 nM. The EC50 in test [4] was 38 nM.
The like results for `O=C1CCC(N2Cc3cc(O[C@H]4CCCC[C@@H]4N4CC(c5ccc6ccccc6n5)C4)ccc3C2=O)C(=O)N1` (single isomer, unassigned) [Compound 90-B] were, in that order, 87.1%, 1 nM, > 30000 nM and 6 nM.
In turn, `CC(C)(C)OC(=O)N1CCC(C2CN([C@H]3CCCC[C@@H]3Oc3ccc4c(c3)CN(C3CCC(=O)NC3=O)C4=O)C2)CC1` (stereo partly drawn) [Compound 26-A, tert-butyl 4-(1-((1S,2S)-2-((2-(2,6-dioxopiperidin-3-yl)-1-oxoisoindolin-5-yl)oxy)cyclohexyl)azetidin-3-yl)piperidine-1-carboxylate] yielded an inhibition at 1 µM in test [1] of 74.7%. Further, the DC50 in test [2] was 1 nM; in test [3], > 30000 nM. For the same compound, the EC50 in test [4] amounted to 1 nM.
For `O=C1CCC(N2Cc3cc(O[C@@H]4CCCC[C@@H]4N4CC(c5ncncc5Cl)C4)ccc3C2=O)C(=O)N1` (mixture of isomers) [Compound 139-B, Rac-3-(5-(((cis)-2-(3-(5-chloropyrimidin-4-yl)azetidin-1-yl)cyclohexyl)oxy)-1-oxoisoindolin-2-yl)piperidine-2,6-dione], in test [1], at 1 µM the inhibition was 62.4%. The DC50 is 33 nM in test [2] and > 30000 nM in test [3]. For the same compound, the EC50 in test [4] amounted to 35 nM.
Turning to `O=C1CCC(N2Cc3cc(O[C@H]4CCCC[C@@H]4N4CC(c5ccncc5F)C4)ccc3C2=O)C(=O)N1` (single isomer, unassigned) [Compound 102-B], in test [1], the inhibition at 1 µM was 71.1%. The DC50 is 10 nM in test [2] and > 30000 nM in test [3]. For the same compound, in test [4], the EC50 is 15 nM.
Turning to `O=C1CCC(N2Cc3cc(OC4CCCC4N4CC(c5c[nH]c6ccccc56)C4)ccc3C2=O)C(=O)N1` (centres unmarked) [Compound 181-B, 3-(5-((2-(3-(1H-indol-3-yl)azetidin-1-yl)cyclopentyl)oxy)-1-oxoisoindolin-2-yl)piperidine-2,6-dione], in test [1], the inhibition at 1 µM was < 30%. Moreover, the values for the DC50 in test [2] and in test [3] were 34 nM and > 30000 nM, respectively. For the same compound, the EC50 in test [4] is 13 nM.
For `O=C1CCC(N2Cc3cc(O[C@@H]4CCCC[C@H]4N4CC(c5ccc(C(F)(F)F)nc5)C4)ccc3C2=O)C(=O)N1` (single isomer, unassigned) [Compound 125-B], at 1 µM the inhibition in test [1] was 50.9%. In addition, the DC50 in test [2] is 83 nM; in test [3], > 30000 nM. Further, the EC50 in test [4] was 65 nM.
The compound `O=C1CCC(N2Cc3cc(O[C@H]4CCCC[C@@H]4N4CC(c5ncc(C(F)(F)F)cn5)C4)ccc3C2=O)C(=O)N1` (single isomer, unassigned) [Compound 120-B] yielded an inhibition at 1 µM in test [1] of 69.9%. For the same compound, the results for the DC50 in test [2] and in test [3] were 4 nM and > 30000 nM, respectively. Further, the EC50 in test [4] came out at 5 nM.
In test [1], `O=C1CCC(N2Cc3cc(O[C@@H]4CCCC[C@@H]4N4CC(c5ccncc5F)C4)ccc3C2=O)C(=O)N1` (mixture of isomers) [Compound 153-B, Rac-3-(5-(((cis)-2-(3-(3-fluoropyridin-4-yl)azetidin-1-yl)cyclohexyl)oxy)-1-oxoisoindolin-2-yl)piperidine-2,6-dione] registered an inhibition at 1 µM of 73.4%. The DC50 in test [2] was 16 nM; in test [3], > 30000 nM. The EC50 in test [4] stood at 32 nM.
Consider `O=C1CCC(N2Cc3cc(O[C@H]4CCCC[C@@H]4N4CC(c5ccncc5F)C4)ccc3C2=O)C(=O)N1` (single isomer, unassigned) [Compound 103-B], for which the “IKZF2 % Degradation @ 1 μM” value in test [1] is reported as 69.9%. For the same compound, the DC50 in test [2] was 18 nM; in test [3], > 30000 nM. Also, the EC50 in test [4] worked out at 59 nM.
In test [1], `CC1(C(=O)N2CCC(C3CN([C@H]4CCCC[C@@H]4Oc4ccc5c(c4)CN(C4CCC(=O)NC4=O)C5=O)C3)CC2)CCC1` (stereo partly drawn) [Compound 25-A, 3-(5-(((1S,2S)-2-(3-(1-(1-methylcyclobutane-1-carbonyl)piperidin-4-yl)azetidin-1-yl)cyclohexyl)oxy)-1-oxoisoindolin-2-yl)piperidine-2,6-dione] registered an inhibition at 1 µM of 84.4%. Moreover, the DC50 in test [2] was 1 nM; in test [3] it was > 30000 nM. The EC50 in test [4] is 4 nM.

Values taken from US20250100996A1, “HETEROCYCLOALKYL AND HETEROARYL COMPOUNDS AND PHARMACEUTICAL COMPOSITIONS THAT MODULATE IKZF2” (Plexium, Inc., priority 2021, published 2025).
